Experimental data from US20040071328A1, “Classifying cells based on information contained in cell images” (priority 2003, published 2004).

Test system: Cell Line A549 (human lung cancer epithelial cells)
Assay: Cell cycle characterization of Taxol-treated A549 cells by image analysis of DAPI-stained DNA
Type: cell-based
Description: FIGS. 14A-14G depict the results of an experiment in which human lung cancer epithelial cells were treated with Taxol and the effect of Taxol on the cell cycle was characterized. The specific cells used in this study were from Cell Line A549 (human lung cancer epithelial cells) (ATCC:CCL-185). Two day staged cell cultures of the A549 cells were trypsinized for five minutes from T175 cm flasks. The cells were then suspended in ten milliliters of RPMI media with ten percent serum and counted using both a hemocytometer and Coulter Counter. The suspension was diluted further in media to ensure that there were 1600 cells per twenty microliters in suspension. The cells were then counted again. Thereafter, they were transferred to a Cell Stir and kept in suspension while being plated into barcoded 384 well plates using a MultiDrop at twenty microliters per well. The plates were transferred to a humidified carbon dioxide incubator to recover for twenty-four hours before the addition of Taxol or DMSO. Prior to imaging the cells were treated with DAPI to stain DNA. Cells from each well were then imaged.
Of relevance to this example, eight wells were treated with Taxol at varying concentrations and eight other “control” wells were treated with DMSO, which is not toxic to the cells under consideration. The concentration of Taxol varied from approximately 0.09 micromolar to 200 micromolar. […] Cells in each of the eight Taxol wells were separately imaged and the total measured intensity in each cell was recorded. As discussed above, the total intensity corresponds to the amount of DNA in each cell. In the histogram, the cell count has been normalized so that the area under each curve was equal to a value of one.
The data used to produce the histogram of FIG. 14B was taken from the same images of the eight Taxol containing wells used to produce the histogram of FIG. 14A. In this histogram, the mitotic discriminator is defined as log2(average intensity) minus log2(area).
The five phases are G1, S, G2, m (telophase), and M (prophase, metaphase, and anaphase). […]

`CC(=O)O[C@H]1C(=O)[C@@]2(C)[C@H]([C@H](OC(=O)c3ccccc3)[C@]3(O)C[C@H](OC(=O)[C@H](O)[C@@H](NC(=O)c4ccccc4)c4ccccc4)C(C)=C1C3(C)C)[C@]1(OC(C)=O)CO[C@@H]1C[C@@H]2O` [Taxol] was tested, and the “distribution of cells based upon the amount of DNA contained in each cell (log2 total intensity histogram; G1 vs G2 peaks)” value (Taxol approximately 0.09 micromolar to 200 micromolar, eight wells, DAPI stain, FIG. 14A) was “arrests cells in the G2 phase”, the “mitotic discriminator (log2(average intensity) minus log2(area)); relative incidence of mitotic vs interphase cells” value (Taxol approximately 0.09 to 200 micromolar, FIG. 14B) was “greatly increase the relative incidence of mitotic cells” and the “number of objects divided by the average number of DMSO objects ("o" curve; objects correspond to living cells)” value (Taxol approximately 0.09 to 200 micromolar, FIG. 14C) was “decreases with increasing concentration of Taxol”.
